According to PMC6553477 (Journal of pharmaceutical sciences, 2018):
Values joined by “and” are separate entries in the source; they are usually repeats but may differ in a detail not shown here. Identical values can stand only once. Like-named read-outs stand apart in the source and are kept apart here. Marks after values point to notes of the source that are not given here.

Key:
[1] = in vivo, sc, cited from earlier work
[2] = monkey, in vivo, sc; cited from earlier work
[3] = in vivo
[4] = cited from earlier work; for LNMC concentration 24 h / LNMC concentration 192 h: in vivo, sc
in vivo = details: Macaca nemestrina (macaque), sc, LNMC/plasma ratio 192 h
[5] = Mechanism-based pharmacokinetic; type: in vivo, Macaca nemestrina; details: MBPK model
[6] = for MBRT / CL/F: ATV-RTV-TFV DcNP; for MBRT / half-life: plasma; for half-life: monkey, in vivo
[7] = PBMC intracellular drug concentrations after single subcutaneous injection; details: for AUC: monkey, sc, AUCPBMC, ATV-RTV-TFV DcNP, single subcutaneous dose, geometric mean (95% CI); for AUC / fold higher AUCPBMC, DcNP versus free drug: macaques; for fold higher AUCPBMC, DcNP versus free drug: ATV-RTV-TFV DcNP compared with free form
[8] = for concentration at 192 h: concentration in LNMCs at 192 h after injection
[9] = in vivo, sc; for time concentrations were sustained in plasma: macaque (Macaca nemestrina)
[10] = Drug association efficiency to DcNP by equilibrium dialysis; type: physicochemical; details: ATV-RTV-TFV DcNP, DSPC-DSPE-mPEG2000 (9:1)
HIV [11] = details: read-out: in vitro effective concentration that produces 90% of the maximal effect (EC90); reported in vitro; cited from earlier work
HIV-1 protease = details: reported; cited from earlier work
HIV [12] = details: read-out: in vivo EC50; nonhuman primates; cited from earlier work
[13] = macaque (Macaca nemestrina), sc
[14] = single subcutaneous dose, macaques, geometric mean (95% CI)
[15] = sc, Terminal t1/2, ATV-RTV-TFV DcNP, single subcutaneous dose, macaques, geometric mean (95% CI)
[16] = ATV-RTV-TFV DcNP, subcutaneous, macaques, 24 h
[17] = ATV-RTV-TFV DcNP versus TLC-ART 101
[18] = ATV-RTV-TFV DcNP compared with free form, macaques
[19] = ATV-RTV-TFV DcNP compared with free form, macaques, 24 h
[20] = TLC-ART 101, subcutaneous, macaques, 24 h
[21] = TLC-ART 101, subcutaneous, macaques, 192 h

Structure (SMILES)	time drug concentration in PBMCs was sustained [3, 13]	LNMC concentration 24 h [4]	LNMC concentration 192 h [4]	K07, rate of elimination ([5]; Atazanavir-DcNP)	V5_DcNP, central compartmental apparent volume for DcNP ([5]; Atazanavir-DcNP)	V7_Free, central compartmental apparent volume for free drug ([5]; Atazanavir-DcNP)	k21, rate of DcNP absorption into the first delayed compartment ([5]; Atazanavir-DcNP)	k31, rate of DcNP absorption into the second delayed compartment ([5]; Atazanavir-DcNP)	k41, rate of DcNP absorption into the third delayed compartment ([5]; Atazanavir-DcNP)	k75, rate of degradation of DcNP into free drug between central compartments ([5]; Atazanavir-DcNP)	tlag1, delayed constant of delayed compartment 1 ([5]; Atazanavir-DcNP)	tlag2, delayed constant of delayed compartment 2 ([5]; Atazanavir-DcNP)	tlag3, delayed constant of delayed compartment 3 ([5]; Atazanavir-DcNP)	MBRT [6, 14]	CL/F [6, 14]	half-life [6, 15]	AUC ([7]; PBMC (intracellular))	LNMC concentration 24 h [8, 16]	time concentrations were sustained in plasma [9]	% Association to DcNP [10]	other results
Cc1cccc(C)c1OCC(=O)N[C@@H](Cc1ccccc1)[C@@H](O)C[C@H](Cc1ccccc1)NC(=O)[C@H](C(C)C)N1CCCNC1=O [LPV, lopinavir]	–	–	–	–	–	–	–	–	–	–	–	–	–	–	–	–	–	–	–	–	AUC (plasma, extrapolated to infinity) [1]: 4.8 (4.2-4.6)^c h·μM; CL/F ([1]; monkey): 5 L/[h·kg]; Terminal t1/2 ([1]; monkey): 8.7 (5.3-10.4)^c h; AUCPBMC [2]: 22 (10-33)^c h·μM
CC(C)c1nc(CN(C)C(=O)N[C@H](C(=O)N[C@@H](Cc2ccccc2)C[C@H](O)[C@H](Cc2ccccc2)NC(=O)OCc2cncs2)C(C)C)cs1 [RTV, ritonavir]	up to 336 h	6.3^a (4.4-8.5) μM	1.00 (0.06-2.00) μM	0.08 (0.03-0.12) 1/h	67 (22-94) L/kg	79 (56-122) L/kg	0.40 (0.35-0.46) 1/h	0.05 (-) 1/h	0.5 (-) 1/h	0.19 (0.06-0.26) 1/h	0.3 (-) h	41 (35-46) h	186 (169-199) h	110 (46-266) h	4 L/[h·kg]	3.04 days	85 µM·h	0.40^a (0.06-3.00) μM	up to 14 days	92 ± 7.1% and 92 ± 7%	last PBMC concentration timepoint detected ([3]; macaque (Macaca nemestrina)): 48 h; Kp at 192 h (in vivo): 23; AUC ([7]; PBMC, PBMC intracellular): 79 µM·h; LNMC concentration ([8]; RTV in ATV-RTV-TFV DcNP, macaques, unit as printed in text (Table 4: 24 h)): 0.4 mM
COC(=O)N[C@H](C(=O)N[C@@H](Cc1ccccc1)[C@@H](O)CN(Cc1ccc(-c2ccccn2)cc1)NC(=O)[C@@H](NC(=O)OC)C(C)(C)C)C(C)(C)C [ATV, atazanavir]	up to 336 h	–	–	0.29 (-) 1/h	1259^a (569-1680) L/kg	113 (97-133) L/kg	0.15 (0.1-0.3) 1/h	0.05 (-) 1/h	0.7 (-) 1/h	0.04^a (0.01-0.06) 1/h	0.25 (-) h	16 (9-25) h	440 (336-520) h	650 (370-1230) h	11^a (8-13) L/[h·kg]	19.5 days	435 µM·h	0.10 (0.04-0.24) μM	up to 14 days	99 ± 8.2% and 99 ± 8%	EC90 (HIV [11]): 13 nM; fold higher V5_DcNP for ATV than LPV [5, 17]: 180 fold; fold lower k75 for ATV than LPV [5, 17]: 18 fold; fold higher plasma AUC, DcNP versus free drug [6, 18]: 5 fold; fold longer MBRT, DcNP versus free drug [6, 18]: 116 fold; fold lower CL/F, DcNP versus free drug [6, 18]: 4 fold; fold higher CL/F, free ATV compared with free LPV ([6]; free drugs, macaques): 9 fold; fold lower AUC, free ATV compared with free LPV ([6]; free drugs, macaques): 8 fold; half-life ([6]; terminal half-life, DcNP ATV, macaques (Table 2)): ~20 days; fold higher antiretroviral activity compared with several other commercialized protease inhibitors (HIV-1 protease): 2- to 20 fold; fold higher AUCPBMC, DcNP versus free drug [7]: 33 fold; fold higher PBMC exposure (AUCPBMC) of ATV than LPV ([7]; ATV-RTV-TFV DcNP versus TLC-ART 101, macaques): 5.5 fold; fold higher intracellular LNMC concentration at 24 h, DcNP versus free drug [8, 19]: 3 fold; fold lower LNMC-to-plasma ratio at 24 h, DcNP versus free drug [8, 19]: 4 fold; fold higher intracellular LNMC concentration at 192 h, DcNP versus free drug ([8]; ATV-RTV-TFV DcNP compared with free form, macaques, 192 h): 3 fold; intracellular LNMC concentration at 192 h ([8]; ATV-RTV-TFV DcNP, macaques, 192 h): 0.09 mμM; LNMC/PBMC ratio 192 h ([8]; ATV-RTV-TFV DcNP, subcutaneous, macaques, 192 h, n=2): 2.4^b; intracellular LNMC concentration at 192 h ([8]; free drug, macaques, 192 h): 0.03 mμM; concentration at 24 h ([8]; macaque (Macaca nemestrina), lymph node mononuclear cells (LNMC), sc, concentration in LNMCs at 24 h after injection, ATV-RTV-TFV DcNP, subcutaneous, primates, 24 h): 100 nM; concentration at 192 h ([8]; macaque (Macaca nemestrina), lymph node mononuclear cells (LNMC), sc, ATV-RTV-TFV DcNP, subcutaneous, primates, 192 h): 90 nM
C[C@H](Cn1cnc2c(N)ncnc21)OCP(=O)(O)O [TFV, 9-(2-Phosphonyl-methoxypropyly)adenine]	up to 192 h	25 (14-47) μM	19 (3.6-280) μM	0.4 (0.08-2) 1/h	0.7 (0.5-0.9) L/kg	1.1 (0.8-1.3) L/kg	0.05 (-) 1/h	0.1 (-) 1/h	0.15 (-) 1/h	0.026 (0.009-0.03) 1/h	1 h	23 (-) h	106 (76-132) h	128 (65-254) h	0.004 (0.002-0.015) L/[h·kg]	2.75 days	–	–	up to 14 days	10 ± 0.8% and 10 ± 1%	AUCPBMC ([3]; monkey, sc): 1134 (588-1554) h·μM; LNMC/PBMC ratio 24 h [4, 20]: 0.93 (0.39-2.3); LNMC/plasma ratio 24 h [4, 20]: 3 (1.5-5.3); LNMC/PBMC ratio 192 h [4, 21]: 4.4 (0.45-340.0); LNMC/plasma ratio 192 h [4, 21]: 6.8 (1.4-75); EC50 (HIV [12]): 49 nM; k76, rate of absorption of free drug ([5]; Atazanavir-DcNP): 1.7 (0.6-2.5) 1/h; k78, rate from periphery to central free compartment ([5]; Atazanavir-DcNP): 0.06 (-) 1/h; k87, rate from central free compartment to periphery ([5]; Atazanavir-DcNP): 0.02 (-) 1/h; fold higher plasma AUC, DcNP versus free drug [6, 18]: 35 fold; fold longer MBRT, DcNP versus free drug [6, 18]: 41 fold; fold longer apparent t1/2, DcNP versus free drug [6, 18]: 7 fold; fold lower CL/F, DcNP versus free drug [6, 18]: 23 fold; fold higher AUCPBMC, DcNP versus free drug [7]: 5 fold; LNMC/PBMC ratio 24 h ([8]; free drug combination, subcutaneous, macaques, 24 h): 1.8^d; concentration at 192 h ([8]; macaque (Macaca nemestrina), in vivo, sc, ATV-RTV-TFV DcNP, subcutaneous, primates, 192 h): 130 nM; AUC (plasma, extrapolated to infinity) ([9]; monkey): 3057 (1029-9078) h·μM
